Reference: PubChem BioAssay AID248 (DTP/NCI, 2004)
“And” between values parts separate entries of the source, which are not always exact repeats. Equal values may be shown once. Inconclusive results and toxic doses are left out. Cut-off read from the data, not from the text of the source: active = T/C of 150% or more; inactive = T/C below 125%.

Tested on: L1210 leukemia ip in BDF1 mice, survival T/C
Assay: NCI In Vivo Anticancer Drug Screen. Data for tumor model L1210 Leukemia (intraperitoneal) in B6D2F1 (BDF1) mice
Settings: endpoint: mean survival time, higher = longer survival
Summary of the method: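 Tumor was transplanted into mice, which were then dosed with test compound or vehicle alone. Survival was recorded for each group, and the treated figure was expressed relative to the control figure.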

[1] = dose: 100.0 mg/kg/injection, schedule: Q04DX003 (ip), vehicle: Klucel (hydroxypropylcellulose) (HPC)
[2] = dose: 400.0 mg/kg/injection, schedule: Q04DX003 (ip), vehicle: Klucel (hydroxypropylcellulose) (HPC)
[3] = dose: 100.0 mg/kg/injection, schedule: Q01DX009 (ip), vehicle: saline
[4] = dose: 200.0 mg/kg/injection, schedule: Q01DX009 (ip), vehicle: saline
[5] = dose: 400.0 mg/kg/injection, schedule: Q01DX009 (ip), vehicle: saline
[6] = dose: 200.0 mg/kg/injection, schedule: Q04DX003 (ip), vehicle: Klucel (hydroxypropylcellulose) (HPC)
[7] = dose: 100.0 mg/kg/injection, schedule: Q01DX001 (ip), vehicle: saline
[8] = dose: 200.0 mg/kg/injection, schedule: Q01DX001 (ip), vehicle: saline
[9] = dose: 75.0 mg/kg/injection, schedule: Q01DX001 (ip), vehicle: saline
[10] = dose: 100.0 mg/kg/injection, schedule: Q01DX001 (ip), vehicle: other
[11] = dose: 100.0 mg/kg/injection, schedule: Q01DX009 (ip), vehicle: Klucel (hydroxypropylcellulose) (HPC)
[12] = dose: 150.0 mg/kg/injection, schedule: Q01DX001 (ip), vehicle: saline
[13] = dose: 200.0 mg/kg/injection, schedule: Q01DX001 (ip), vehicle: other
[14] = dose: 200.0 mg/kg/injection, schedule: Q01DX009 (ip), vehicle: Klucel (hydroxypropylcellulose) (HPC)
[15] = dose: 300.0 mg/kg/injection, schedule: Q01DX001 (ip), vehicle: saline
[16] = dose: 400.0 mg/kg/injection, schedule: Q01DX001 (ip), vehicle: other
[17] = dose: 100.0 mg/kg/injection, schedule: Q04DX003 (ip), vehicle: saline with Tween-80
[18] = dose: 200.0 mg/kg/injection, schedule: Q04DX003 (ip), vehicle: saline with Tween-80
[19] = dose: 400.0 mg/kg/injection, schedule: Q01DX001 (ip), vehicle: saline
[20] = dose: 100.0 mg/kg/injection, schedule: Q04DX003 (ip), vehicle: saline
[21] = dose: 200.0 mg/kg/injection, schedule: Q04DX003 (ip), vehicle: saline
[22] = dose: 400.0 mg/kg/injection, schedule: Q04DX003 (ip), vehicle: saline
[23] = dose: 100.0 mg/kg/injection, schedule: Q04DX002 (ip), vehicle: saline
[24] = dose: 400.0 mg/kg/injection, schedule: Q04DX003 (ip), vehicle: saline with Tween-80

Measured: T/C

O=C(CNC(=O)C(CSCc1ccccc1)NC(=O)OCc1ccccc1)OCc1ccccc1 (stereo not drawn)
inactive: dose: 25.0 mg/kg/injection, schedule: Q01DX009 (ip), vehicle: gum acacia 92 % of control | dose: 50.0 mg/kg/injection, schedule: Q01DX009 (ip), vehicle: gum acacia 87 % of control | dose: 100.0 mg/kg/injection, schedule: Q01DX009 (ip), vehicle: gum acacia 94 % of control | [1] 89 % of control | [2] 99 % of control

O=C1OC(/C=C/c2ccccc2)=NC/1=C\c1ccc(Cl)cc1
inactive: [3] 105 % of control | [4] 105 % of control | [5] 94 % of control

CCCCCCCCCCCCCCCCCCN1CNC(=O)NC1
inactive: [1] 93 % of control | [6] 101 % of control

COC1CCN(CCCn2c3ccccc3c3ccc(C(C)=O)cc32)CC1
inactive: [7] 97 % of control | [8] 105 % of control

Cc1ccccc1-n1c(C)nc2ccccc2c1=O
inactive: [9] 102 % of control | [10] 94 % of control | [11] 97 % of control | [1] 101 % of control | [12] 106 % of control | [13] 100 % of control | [14] 105 % of control | [6] 105 % of control | [15] 107 % of control | [16] 96 % of control | [2] 111 % of control

Cc1ccc(C(=O)CCl)o1
inactive: [17] 106 % of control | [18] 116 % of control

Cc1cc(C)c(OCC2CO2)c(C)c1 (stereo not drawn)
inactive: [1] 105 % of control | [6] 95 % of control | [2] 89 % of control

CC(=O)N(N=O)c1ccc([N+](=O)[O-])cc1Cl
inactive: dose: 50.0 mg/kg/injection, schedule: Q01DX001 (ip), vehicle: saline 102 % of control | [7] 102 % of control | [8] 100 % of control | [19] 102 % of control

O=C(/C=C/C=C/c1cccc([N+](=O)[O-])c1)CCl
inactive: [7] 101 % of control | [8] 95 % of control | [19] 103 % of control

Cn1cnc2c(C(F)(F)F)nc(N)nc21
inactive: [20] 94 % of control | [21] 102 % of control

COc1ccc(Cc2c3cc(OC)c(OC)cc3cc[n+]2C)cc1OC
inactive: dose: 12.5 mg/kg/injection, schedule: Q01DX009 (ip), vehicle: saline with Tween-80 103 % of control | dose: 25.0 mg/kg/injection, schedule: Q01DX009 (ip), vehicle: saline with Tween-80 100 % of control | dose: 50.0 mg/kg/injection, schedule: Q01DX009 (ip), vehicle: saline with Tween-80 105 % of control and 106 % of control | [17] 98 % of control | [18] 95 % of control

O=S1(=O)CC2(N3CCCCC3)CCCCC21 (stereo not drawn)
inactive: dose: 5.0 mg/kg/injection, schedule: Q01DX009 (ip), vehicle: saline 94 % of control | dose: 10.0 mg/kg/injection, schedule: Q01DX009 (ip), vehicle: saline 96 % of control

NC(CCCNc1nc(O)c(-c2ccccc2)c(=O)[nH]1)C(=O)O (stereo not drawn)
inactive: [9] 104 % of control | [12] 102 % of control | [15] 102 % of control

O=C(CBr)N=c1cc(-c2ccc(Cl)cc2)ss1
inactive: [20] 95 % of control | [21] 91 % of control | [22] 101 % of control

CCOC(=O)C1OC(n2cnc3c(N)ncnc32)C(O)C1O (stereo not drawn)
inactive: dose: 100.0 mg/kg/injection, schedule: Q01DX005 (ip), vehicle: saline 98 % of control | dose: 200.0 mg/kg/injection, schedule: Q01DX005 (ip), vehicle: saline 97 % of control

CC[N+]1(CC)CCOC(=O)C1
inactive: [3] 95 % of control | [20] 109 % of control | [4] 93 % of control | [21] 101 % of control | [5] 94 % of control | [22] 101 % of control

CCCCc1cnc(NCCCC(N)C(=O)O)nc1 (stereo not drawn)
inactive: dose: 25.0 mg/kg/injection, schedule: Q04DX002 (ip), vehicle: saline 100 % of control | dose: 50.0 mg/kg/injection, schedule: Q04DX002 (ip), vehicle: saline 95 % of control | [23] 92 % of control

CC(C)(C)CC(C)(C)c1ccc(OCCOc2ccc(NS(=O)(=O)c3ccc([N+](=O)[O-])cc3)cc2)cc1
inactive: [1] 91 % of control | [6] 100 % of control | [2] 91 % of control

O=C(NCCF)NC1CCSCC1
inactive: [10] 112 % of control | [13] 103 % of control | [16] 98 % of control

COc1cc(C(=O)N2CC2)cc(OC)c1OC
inactive: dose: 25.0 mg/kg/injection, schedule: Q01DX009 (ip), vehicle: water 96 % of control | dose: 50.0 mg/kg/injection, schedule: Q01DX009 (ip), vehicle: water 96 % of control

Nc1ccc2ccccc2c1-c1c(N)ccc2ccccc12
inactive: dose: 75.0 mg/kg/injection, schedule: Q04DX002 (ip), vehicle: saline with Tween-80 109 % of control | [1] 97 % of control | [6] 103 % of control | dose: 300.0 mg/kg/injection, schedule: Q04DX002 (ip), vehicle: saline with Tween-80 94 % of control | [2] 88 % of control

Cn1c2c(c3ccccc31)C(=C(c1ccccc1)c1ccccc1)c1ccccc1-2
inactive: dose: 100.0 mg/kg/injection, schedule: Q04DX002 (ip), vehicle: saline with Tween-80 87 % of control | dose: 200.0 mg/kg/injection, schedule: Q04DX002 (ip), vehicle: saline with Tween-80 87 % of control

CC1CCNCC1
inactive: [23] 105 % of control | dose: 200.0 mg/kg/injection, schedule: Q04DX002 (ip), vehicle: saline 102 % of control | dose: 400.0 mg/kg/injection, schedule: Q04DX002 (ip), vehicle: saline 94 % of control

O=C(NC(Cc1ccccc1)C(=O)N1CCOCC1)c1ccccc1 (stereo not drawn)
inactive: [7] 91 % of control | [8] 98 % of control | [19] 89 % of control

CCOc1ccn(CC(=O)N2CCC3(CC2)SSC2(CCN(C(=O)Cn4ccc(OCC)nc4=O)CC2)S3)c(=O)n1
inactive: [20] 90 % of control | [21] 92 % of control | [22] 95 % of control

CCCCCCCCCCCCCCCc1cc(=O)n(-c2ccc(NC(=O)/C=C/C(=O)O)cc2)n1C
inactive: [1] 98 % of control | [6] 94 % of control

O=C(Nc1cccc2ccccc12)c1ccccc1F
inactive: [11] 95 % of control | [14] 92 % of control | dose: 400.0 mg/kg/injection, schedule: Q01DX009 (ip), vehicle: Klucel (hydroxypropylcellulose) (HPC) 104 % of control

N#Cc1cc2ccncc2c2ccccc12
inactive: [17] 100 % of control | [18] 96 % of control | [24] 97 % of control

COc1ccc(CCO)c(OC)c1
inactive: dose: 50.0 mg/kg/injection, schedule: Q01DX001 (ip), vehicle: carboxymethylcellulose (CMC) 98 % of control | dose: 100.0 mg/kg/injection, schedule: Q01DX001 (ip), vehicle: carboxymethylcellulose (CMC) 100 % of control | dose: 200.0 mg/kg/injection, schedule: Q01DX001 (ip), vehicle: carboxymethylcellulose (CMC) 96 % of control | dose: 400.0 mg/kg/injection, schedule: Q01DX001 (ip), vehicle: carboxymethylcellulose (CMC) 88 % of control

Nc1nnnn1C(=O)NCCCl
inactive: dose: 100.0 mg/kg/injection, schedule: Q01DX001 (ip), vehicle: Klucel (hydroxypropylcellulose) (HPC) 111 % of control | dose: 200.0 mg/kg/injection, schedule: Q01DX001 (ip), vehicle: Klucel (hydroxypropylcellulose) (HPC) 97 % of control | dose: 400.0 mg/kg/injection, schedule: Q01DX001 (ip), vehicle: Klucel (hydroxypropylcellulose) (HPC) 94 % of control

O=C(Nc1ccccc1)Nc1ccc(C(=O)CCl)cc1
inactive: dose: 100.0 mg/kg/injection, schedule: Q01DX005 (ip), vehicle: saline with Tween-80 96 % of control | [17] 102 % of control | dose: 200.0 mg/kg/injection, schedule: Q01DX005 (ip), vehicle: saline with Tween-80 110 % of control | [18] 112 % of control | dose: 400.0 mg/kg/injection, schedule: Q01DX005 (ip), vehicle: saline with Tween-80 92 % of control | [24] 100 % of control

CCCCOCCCNC(F)(F)C(=O)Nc1ccc(S(=O)(=O)c2ccc(NC(=O)C(F)(F)NCCCOCCCC)cc2)cc1
inactive: [7] 113 % of control | [8] 97 % of control | [19] 94 % of control

CCCCC(=O)NC(O)C(Cl)(Cl)C(C)Cl (stereo not drawn)
inactive: dose: 50.0 mg/kg/injection, schedule: Q01DX001 (ip), vehicle: other 112 % of control | [10] 91 % of control | [13] 101 % of control | [16] 101 % of control
